Data reported in patent publication US11447470B2, “Pyrimidinone-containing compound, preparation method thereof, pharmaceutical composition and application thereof” (YUNNAN UNIVERSITY, priority 2018, dated 2022).
Read-outs that look alike come from different tables or passages of the source.

What was measured:
Type in all cases: cell-based
[1] = Cytotoxicity experiment (MTT method) on C8166 cells; settings: human
Description: (§1) C8166 cells infected with HIV-1 were used for determining the anti-HIV biological activity at the cellular level. The specific method was described below.
(§2) Cytotoxicity experiment: The toxicity of the compounds on C8166 cells was determined by MTT method. In 96-well cell culture plates, the compounds were subjected to 5-fold serial dilution and 100 μL of C8166 cell suspension (4×10^5/mL) was added into each well. Triplicate wells were set for each concentration. […] The cells were incubated at 37° C. in a 5% CO2 incubator for three days, followed by the addition of MTT solution into each well, and then the cells were incubated at 37° C. for 4 hours. 10% SDS-50% DMF was added into each well and the cells were incubated at 37° C. in a 5% CO2 incubator overnight. After mixing evenly, the OD values were measured by BIO-TEK ELx800 ELISA instrument (determination wavelength: 570 nm; reference wavelength: 630 nm).

C8166 cells = test: as above
Description: as §1, §2

HIV-1IIIB = test: Syncytium inhibition experiment, C8166 cells infected with HIV-1IIIB; settings: Human immunodeficiency virus 1, 72 h; HIV-1IIIB (MOI=0.04) in C8166 cells, syncytium count, three days
Description: as §1
Syncytium inhibition experiment: 100 μL of C8166 cell suspension (4×10^5/mL) was seeded into each well of 96-well cell culture plates containing 5-fold serial dilutions of the compounds, followed by addition of HIV-1IIIB diluted supernatant (MOI=0.04). Triplicate wells were set for each serial concentration. […] The cells were cultured at 37° C. in a 5% CO2 incubator for three days. The number of the syncytia was counted in five non-overlapping fields of view by using an inverted microscope (100×).

EC50 (HIV-1IIIB) [nM] | Structure (SMILES) | CC50 at 3 days [1] [µM] | CC50 (C8166 cells; human, 3 days) [µM] | CC50 at 3 days ([1]; C8166 cells in vitro, read-out: CC50 values on C8166 cells) [µM] | CC50 (C8166 cells; C8166 cells, MTT, three days, read-out: CC50) [µM]
12 | COc1ccc(-c2cc(CSc3nc(CC4CCCCC4)c(C(C)C)c(=O)[nH]3)n[nH]2)cc1 [Compound I-40] | > 200 | > 200 | – | –
700 | CCc1c(Cc2c(Cl)cccc2Cl)nc(SCc2n[nH]c(-c3ccc(F)c(F)c3)c2Cl)[nH]c1=O [Compound I-55] | > 200 | > 200 | – | –
837 | CCc1c(Cc2ccccc2)nc(SCc2cc(-c3ccc(F)cc3)[nH]n2)[nH]c1=O [Compound I-49] | > 200 | > 200 | – | –
97 | CCc1c(Cc2cc(F)cc(F)c2)nc(SCc2cc(-c3ccc(F)cc3)[nH]n2)[nH]c1=O [Compound I-52] | > 200 | > 200 | – | –
141 | CCc1c(Cc2ccccc2)nc(SCc2n[nH]c(-c3ccc(F)c(F)c3)c2Cl)[nH]c1=O [Compound I-53] | > 200 | > 200 | – | –
23900 | O=c1cc(CC2CCCCC2)nc(SCc2cc(-c3ccc(F)c(F)c3)[nH]n2)[nH]1 [Compound I-59] | 89.1 | – | – | –
49 | Cc1cn([C@H]2C[C@H](N=[N+]=[N-])[C@@H](CO)O2)c(=O)[nH]c1=O [AZT, Zidovudine, reference compound] | > 749 | – | – | –
55 | CCc1c(Cc2cc(F)cc(F)c2)nc(SCc2n[nH]c(-c3ccccc3)c2Cl)[nH]c1=O [Compound I-69] | > 200 | – | – | –
16 | CC(C)c1c(CC2CCCCC2)nc(SCc2cc(-c3ccc(F)cc3)[nH]n2)[nH]c1=O [Compound I-39] | 99 | – | – | –

Structure (SMILES) | EC50 (HIV-1IIIB) [nM] | CC50 at 3 days [1] [µM] | CC50 (C8166 cells; human, 3 days) [µM] | CC50 at 3 days ([1]; C8166 cells in vitro, read-out: CC50 values on C8166 cells) [µM] | CC50 (C8166 cells; C8166 cells, MTT, three days, read-out: CC50) [µM]
CCc1c(CC2CCCCC2)nc(SCc2n[nH]c(-c3ccc(Cl)c(Cl)c3)c2Cl)[nH]c1=O [Compound I-13] | 349 | – | – | > 200 | > 200
